From patent US20090149504A1, “Novel 5-Substituted Indole Derivatives As Dipeptidyl Peptidase IV (DPP-IV) Inhibitors” (AURIGENE DISCOVERY TECHNOLOGIES LIMITED, priority 2005, published 2009)
pIC50: −log10 of the molar value. Where a name gives a salt, the structure may show the parent alone.

Assays:
[1] = molecular target: T1, DPP-IV from porcine kidney (Sus scrofa, UniProt P22411); test: In vitro DPP IV inhibition measurement (fluorimetric, Gly-Pro-AMC substrate); type: biochemical; conditions: 50 μM Gly-Pro-AMC, pH 8, 30° C.
T1 construct: DPP-IV from porcine kidney (D-7052); purchased Sigma Chemical Company, USA D-7052; host or cells: porcine kidney (tissue-derived)
Procedure: DPP-IV from porcine kidney (D-7052) and the substrate Gly-Pro-7-amido-4-methylcoumar0in hydrobromide (Gly-Pro-AMC, G2761) were obtained from Sigma Chemical Company, USA. Stock solutions of test compounds were prepared in dimethylsulfoxide. DPP IV enzyme cleaves the peptide substrate Gly-Pro-AMC leading to the formation of AMC, which is highly fluorescent. Molecules that inhibit DPP IV prevent or reduce the liberation of AMC from the substrate. The ability of test compounds to inhibit DPP IV was measured fluorimetrically by monitoring the formation of AMC. The assay was carried out in 20 mM Tris.HCl, pH 8 buffer. Test compounds were incubated with the enzyme (5 mU/100 μl) in a 96-well black flat bottom microtiter plate (Greiner bio-one, Germany) for 20 minutes at 30° C. and the reaction was initiated by the addition of 50 μM Gly-Pro-AMC. After 30 minutes incubation at 30° C., the fluorescence at 460 nm was measured (λex=360 nm) in a Spectramax Gemini spectrofluorimeter (Molecular Devices, USA). IC50, the concentration of compound required to inhibit 50% of enzyme activity was determined and the compounds were rated accordingly. For the IC50 determination, non-linear fitting of the dose-response curves were carried out using Kaleidagraph v3 software. LAF237 [Novarti's vildagliptin is a new class of oral antidiabetic agents known as dipeptidyl peptidase IV inhibitors (DPP-IV) inhibitors] was used as the standard inhibitor for the assay.

Plasma DPP-IV activity = molecular target: T2, Plasma DPP-IV activity (Rattus norvegicus, UniProt P14740); test: In vivo efficacy study in rat: plasma DPP-IV activity after oral dosing; conditions: 3 mg/kg oral, male wistar rats, measured at 20 min after glucose challenge
T2 construct: from tissue; host or cells: plasma of orally dosed male Wistar rats
Procedure: DPP-IV from porcine kidney (D-7052) and the substrate Gly-Pro-7-amido-4-methylcoumar0in hydrobromide (Gly-Pro-AMC, G2761) were obtained from Sigma Chemical Company, USA. Stock solutions of test compounds were prepared in dimethylsulfoxide. DPP IV enzyme cleaves the peptide substrate Gly-Pro-AMC leading to the formation of AMC, which is highly fluorescent. Molecules that inhibit DPP IV prevent or reduce the liberation of AMC from the substrate. The ability of test compounds to inhibit DPP IV was measured fluorimetrically by monitoring the formation of AMC. The assay was carried out in 20 mM Tris.HCl, pH 8 buffer. […] After 30 minutes incubation at 30° C., the fluorescence at 460 nm was measured (λex=360 nm) in a Spectramax Gemini spectrofluorimeter (Molecular Devices, USA). […]
Male wistar rats were divided into groups of 6, fasted for approximately 16-18 hours before the experiment, and dosed orally with 0.3, 1, 3 and 10 mg/kg of the test compounds in carboxymethylcellulose (CMC) or Tween 80. […] Blood samples obtained at various time points from chronic jugular vein catheters/retro orbital bleed were analyzed for plasma glucose and plasma DPP-IV activity. Measurement of Plasma glucose was carried out using Merckotest Glucose kit (GOD-POD method, Merck) in Selectra Clinical Chemistry analyzer, and area under the curve (AUC) for glucose (0-120 min) was calculated. […]

Male wistar rats = test: In vivo efficacy study in rat: oral glucose tolerance (plasma glucose); conditions: 3 mg/kg oral, 2 g/kg oral glucose, measured at 20 min after glucose challenge
Procedure: Male wistar rats were divided into groups of 6, fasted for approximately 16-18 hours before the experiment, and dosed orally with 0.3, 1, 3 and 10 mg/kg of the test compounds in carboxymethylcellulose (CMC) or Tween 80. After 30 min of test compound dosing, an oral glucose bolus of 2 g/kg was administered directly into the stomach of the test animals. Blood samples obtained at various time points from chronic jugular vein catheters/retro orbital bleed were analyzed for plasma glucose and plasma DPP-IV activity. Measurement of Plasma glucose was carried out using Merckotest Glucose kit (GOD-POD method, Merck) in Selectra Clinical Chemistry analyzer, and area under the curve (AUC) for glucose (0-120 min) was calculated. Plasma DPP-IV activity was measured as described above (Example-64), using 2 μl plasma for every reaction.

Zucker fa/fa fatty rats = test: In vivo efficacy in genetic models: oral glucose challenge in Zucker fa/fa rats; set-up: species or system rat; conditions: 3 mg/kg
Procedure: (a) Zucker fa/fa rats Zucker fa/fa fatty rats were obtained from IffaCredo, France. The animals were maintained under 12 hour light and dark cycle at 24+/−2° C., given standard laboratory chow (NIN, Hyderabad, India) and water, ad libitum. The test compound (Example-4) was administered at 3 mg/kg dose to overnight fasted animals. The control animals received the vehicle (0.2% tween 80, dosed at 1 ml/kg) orally. Thirty minutes after administration of test compound, 2 g/kg glucose at 5 ml/kg was administered by oral gavage. Blood samples were collected at 0 (prior to compound administration), 7, 20, 40, 60 and 120 min after glucose challenge, for estimation of plasma glucose and insulin levels, and DPP-IV activity. Additional blood samples were collected in chilled EDTA tubes and immediately DPP-IV inhibitor (Linco Research, USA) was added to achieve final concentration of 10 μl/mL of blood to estimate GLP-1 levels. Blood samples were centrifuged and separated plasma samples were stored at −20° C. until analysis. Plasma DPP-IV activity and glucose levels were measured as described above (Example-65). Insulin and GLP-1 levels were measured using ELISA kits, as per manufacturer's procedures (Linco Research, USA). […] There was a 7-fold increase in GLP-1 levels at 7 min and 6-fold increase in insulin levels at 15 min after glucose challenge.

[2] = tested on: Male C57BL/KsJ-db/db mice; test: In vivo efficacy in genetic models: oral glucose challenge in db/db mice; conditions: 3 mg/kg
Procedure: (b) db/db mice Male C57BL/KsJ-db/db mice of 8 to 14 weeks age, having body weight in the range of 35 to 60 grams, bred at Discovery Research, Dr. Reddy's Laboratories, were used in the experiment. The animals were maintained under 12 hour light and dark cycle at 24+/−2° C., given standard laboratory chow (NIN, Hyderabad, India) and water, ad libitum. The test compound (Example-4) was administered at 3 mg/kg dose. The control animals received the vehicle (0.2% Tween 80, dosed at 10 ml/kg) through oral gavage. 30 minutes after administration of test compound, 1.5 g/kg glucose at 10 ml/kg was administered by oral gavage. Blood samples were collected at 0 (prior to compound administration), 15, 30, 60 and 120 min after glucose challenge for estimation of plasma glucose levels, insulin and DPP-IV activity. Blood samples (0, 7, 15 min) from a satellite group of animals were collected in chilled EDTA tubes and immediately DPP-IV inhibitor (Linco Research) was added to achieve final concentration of 10 μl/mL of blood to estimate GLP-1 levels. Blood samples were centrifuged and separated plasma was stored at −20° C. until analysis. Glucose, Insulin and GLP-1 levels, and plasma DPP-IV activity were measured as described above (Example-66). Compound (Example-4) reduced the glucose levels by 58%. There was 16-fold increase in GLP-1 levels at 7 min and 5.4-fold increase in insulin levels at 15 min after glucose challenge.

[3] = at 7 min after glucose challenge
[4] = at 15 min after glucose challenge

T1 sequence (P22411 whole entry): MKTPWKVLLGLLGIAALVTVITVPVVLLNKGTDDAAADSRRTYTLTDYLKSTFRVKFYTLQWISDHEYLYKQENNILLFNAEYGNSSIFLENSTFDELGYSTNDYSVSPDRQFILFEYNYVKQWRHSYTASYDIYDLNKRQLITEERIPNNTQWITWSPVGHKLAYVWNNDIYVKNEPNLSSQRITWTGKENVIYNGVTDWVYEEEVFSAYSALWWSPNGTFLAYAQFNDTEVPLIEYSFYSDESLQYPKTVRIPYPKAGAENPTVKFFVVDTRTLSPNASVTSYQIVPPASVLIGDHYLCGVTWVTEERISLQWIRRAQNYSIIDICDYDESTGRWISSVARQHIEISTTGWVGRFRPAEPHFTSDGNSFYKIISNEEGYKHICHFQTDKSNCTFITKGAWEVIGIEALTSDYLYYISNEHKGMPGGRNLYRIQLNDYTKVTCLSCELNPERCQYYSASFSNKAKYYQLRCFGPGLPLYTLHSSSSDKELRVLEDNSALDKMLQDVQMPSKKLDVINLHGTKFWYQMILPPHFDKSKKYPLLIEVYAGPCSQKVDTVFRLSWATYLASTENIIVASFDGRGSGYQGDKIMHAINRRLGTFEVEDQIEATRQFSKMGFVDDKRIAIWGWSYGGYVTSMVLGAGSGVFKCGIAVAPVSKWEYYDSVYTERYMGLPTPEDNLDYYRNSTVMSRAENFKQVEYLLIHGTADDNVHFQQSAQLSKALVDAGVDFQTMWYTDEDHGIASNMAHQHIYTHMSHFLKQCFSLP
T2 sequence (P14740 37-767 limits assumed): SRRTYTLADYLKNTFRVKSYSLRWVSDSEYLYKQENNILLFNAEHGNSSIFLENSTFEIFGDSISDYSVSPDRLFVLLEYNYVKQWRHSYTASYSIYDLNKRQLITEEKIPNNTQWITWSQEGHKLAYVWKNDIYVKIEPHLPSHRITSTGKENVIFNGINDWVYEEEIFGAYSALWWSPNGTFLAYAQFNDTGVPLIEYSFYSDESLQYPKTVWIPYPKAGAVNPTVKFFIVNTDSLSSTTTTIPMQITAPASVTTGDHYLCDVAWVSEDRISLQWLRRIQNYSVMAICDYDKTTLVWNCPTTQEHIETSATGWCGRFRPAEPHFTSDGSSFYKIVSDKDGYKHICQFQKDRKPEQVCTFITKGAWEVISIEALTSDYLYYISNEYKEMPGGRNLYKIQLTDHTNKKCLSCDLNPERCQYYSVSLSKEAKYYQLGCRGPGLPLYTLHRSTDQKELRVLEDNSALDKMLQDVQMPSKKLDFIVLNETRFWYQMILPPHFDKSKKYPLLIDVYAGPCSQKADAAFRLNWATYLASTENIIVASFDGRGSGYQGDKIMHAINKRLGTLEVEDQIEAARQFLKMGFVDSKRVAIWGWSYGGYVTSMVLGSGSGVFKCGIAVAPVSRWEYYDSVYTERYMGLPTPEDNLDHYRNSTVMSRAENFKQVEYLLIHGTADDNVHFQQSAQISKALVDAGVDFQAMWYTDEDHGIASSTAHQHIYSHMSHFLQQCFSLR

Structure (SMILES): N#C[C@H]1CSCN1C(=O)[C@@H](N)Cc1c[nH]c2ccc(Oc3ccc([N+](=O)[O-])cc3)cc12 [Example 34, Trifluoroacetic acid salt]
- pIC50 [1]: 8.55

Structure (SMILES): N#Cc1ccc(Oc2ccc3[nH]cc(C[C@H](N)C(=O)N4CSC[C@@H]4C#N)c3c2)nc1 [Example 33, (S,S) 6-{3-[2-Amino-3-(4-cyano-thiazolidin-3-yl)-3-oxo-propyl]-1H-indol-5-yloxy}-nicotinonitrile. Trifluoroacetic acid salt]
- pIC50 [1]: 8.46

Structure (SMILES): N#Cc1cccnc1Oc1ccc2[nH]cc(C[C@H](N)C(=O)N3CSC[C@@H]3C#N)c2c1 [Example 32, (S,S) 2-{3-[2-Amino-3-(4-cyano-thiazolidin-3-yl)-3-oxo-propyl]-1H-indol-5-yloxy}-nicotinonitrile. Trifluoroacetic acid salt]
- pIC50 [1]: 8.20

Structure (SMILES): N#Cc1ccc(Oc2ccc3[nH]cc(C[C@H](N)C(=O)N4CCC[C@H]4C#N)c3c2)nc1 [Example 6, (S,S) 6-{3-[2-Amino-3-(2-cyano-pyrrolidin-1-yl)-3-oxo-propyl]-1H-indol-5-yloxy}-nicotinonitrile. Trifluoroacetic acid salt]
- pIC50 [1]: 8.26

Structure (SMILES): N#Cc1ccc(Oc2ccc3[nH]cc(C[C@H](N)C(=O)N4C[C@@H](F)C[C@H]4C#N)c3c2)nc1 [Example 30, (S,S,S) 6-{3-[2-Amino-3-(2-cyano-4-fluoro-pyrrolidin-1-yl)-3-oxo-propyl]-1H-indol-5-yloxy}-nicotinonitrile. Trifluoroacetic acid salt]
- pIC50 [1]: 8.33

Structure (SMILES): N#C[C@@H]1CCCN1C(=O)[C@@H](N)Cc1c[nH]c2ccc(Oc3ccc([N+](=O)[O-])cn3)cc12 [Example 4, Trifluoroacetic acid salt]
- pIC50 [1]: 8.88
- inhibition at 3 mg/kg (Plasma DPP-IV activity): 90%
- % Glucose reduction (Male wistar rats): 34%
- reduction in glucose (Zucker fa/fa fatty rats; 2 g/kg oral glucose 30 min after compound): 55%
- increase in GLP-1 levels (Zucker fa/fa fatty rats; [3]): 7 fold
- increase in insulin levels (Zucker fa/fa fatty rats; [4]): 6 fold
- reduced the glucose levels ([2]; 1.5 g/kg oral glucose 30 min after compound): 58%
- increase in GLP-1 levels [2, 3]: 16 fold
- increase in insulin levels [2, 4]: 5.4 fold

Structure (SMILES): N#Cc1cccnc1Oc1ccc2[nH]cc(C[C@H](N)C(=O)N3C[C@@H](F)C[C@H]3C#N)c2c1 [Example 27, (S,S,S) 2-{3-[2-Amino-3-(2-cyano-4-fluoro-pyrrolidin-1-yl)-3-oxo-propyl]-1H-indol-5-yloxy} nicotinonitrile. Trifluoroacetic acid salt]
- pIC50 [1]: 8.05

Structure (SMILES): N#C[C@@H]1C[C@H](F)CN1C(=O)[C@@H](N)Cc1c[nH]c2ccc(Oc3ccc([N+](=O)[O-])cc3)cc12 [Example 28, Trifluoroacetic acid salt]
- pIC50 [1]: 8.82

Structure (SMILES): N#C[C@@H]1CCCN1C(=O)[C@@H](N)Cc1c[nH]c2ccc(Oc3ccc([N+](=O)[O-])cc3)cc12 [Example 12]
- pIC50 [1]: 8.74
- inhibition at 3 mg/kg (Plasma DPP-IV activity): 74%
- % Glucose reduction (Male wistar rats): 22%

Structure (SMILES): N#C[C@H]1CSCN1C(=O)[C@@H](N)Cc1c[nH]c2ccc(Oc3ccc([N+](=O)[O-])cn3)cc12 [Example 35, (S,S) 3-{2-Amino-3-[5-(5-nitro-pyridin-2-yloxy)-1H-indol-3-yl]-propionyl}-thiazolidine-4-carbonitrile. Trifluoroacetic acid salt]
- pIC50 [1]: 8.43
